Like-named read-outs stand apart in the source and are kept apart here.
Key:
PI3K (p110α/p85α) = target: T1, PI3K (p110α/p85α) (Homo sapiens, UniProt P42336); experiment: PI3K activity assay (ADP Hunter Plus); assay type: biochemical
T1 construct: purchased Carna Biosciences 07CBS-0402A
Description: The kinase activity was measured by using the commercial ADP Hunter™ Plus assay available from DiscoveRx (#33-016), which is a homogeneous assay to measure the accumulation of ADP, a universal product of kinase activity. […] Reaction was carried out for 1 hour at 25° C. Reagent A and B were sequentially added to the wells and plates were incubated for 30 min at 37° C. Fluorescence counts were read in a Victor instrument (Perkin Elmer) with the recommended settings (544 and 580 nm as excitation and emission wavelengths, respectively). Values were normalized against the control activity included for each enzyme (i.e., 100% PI3 kinase activity, without compound). These values were plotted against the inhibitor concentration and were fit to a sigmoid dose-response curve by using the Graphad software.

mTOR = target: T2, mTOR (Homo sapiens, UniProt P42345); experiment: mTOR assay (LanthaScreen kinase activity assay); assay type: biochemical
T2 construct: purchased Invitrogen PV4754
T2 sequence (P42345 1360-2549 limits assumed): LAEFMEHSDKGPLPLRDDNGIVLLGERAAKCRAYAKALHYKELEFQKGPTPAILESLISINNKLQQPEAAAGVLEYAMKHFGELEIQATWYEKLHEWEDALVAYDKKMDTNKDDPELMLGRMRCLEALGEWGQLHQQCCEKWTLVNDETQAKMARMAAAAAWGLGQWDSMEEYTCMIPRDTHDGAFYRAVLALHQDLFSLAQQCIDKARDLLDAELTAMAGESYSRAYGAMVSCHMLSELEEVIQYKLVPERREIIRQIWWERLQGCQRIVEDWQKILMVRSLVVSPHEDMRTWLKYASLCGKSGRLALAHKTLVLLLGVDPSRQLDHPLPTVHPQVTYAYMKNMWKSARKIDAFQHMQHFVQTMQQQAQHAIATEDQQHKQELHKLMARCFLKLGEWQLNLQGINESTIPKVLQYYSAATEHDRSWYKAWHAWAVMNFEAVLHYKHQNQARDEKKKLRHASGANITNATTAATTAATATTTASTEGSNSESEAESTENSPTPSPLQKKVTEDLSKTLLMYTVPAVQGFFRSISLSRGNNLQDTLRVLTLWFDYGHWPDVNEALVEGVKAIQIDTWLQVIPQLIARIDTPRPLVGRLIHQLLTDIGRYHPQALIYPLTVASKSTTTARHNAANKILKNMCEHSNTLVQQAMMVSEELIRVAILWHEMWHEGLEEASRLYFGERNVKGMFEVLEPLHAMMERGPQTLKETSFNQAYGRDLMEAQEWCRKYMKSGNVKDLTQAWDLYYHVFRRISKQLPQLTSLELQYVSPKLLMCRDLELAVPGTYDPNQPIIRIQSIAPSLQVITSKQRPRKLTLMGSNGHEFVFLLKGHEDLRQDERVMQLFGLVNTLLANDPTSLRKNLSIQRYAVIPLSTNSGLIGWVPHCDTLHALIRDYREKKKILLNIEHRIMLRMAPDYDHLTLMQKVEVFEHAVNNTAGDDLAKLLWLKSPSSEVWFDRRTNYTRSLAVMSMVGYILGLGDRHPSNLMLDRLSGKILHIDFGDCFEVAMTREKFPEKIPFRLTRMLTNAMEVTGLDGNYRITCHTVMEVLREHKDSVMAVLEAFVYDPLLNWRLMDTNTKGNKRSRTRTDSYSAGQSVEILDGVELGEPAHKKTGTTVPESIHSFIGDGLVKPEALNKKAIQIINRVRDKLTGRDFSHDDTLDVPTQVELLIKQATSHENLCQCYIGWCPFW
Description: The enzymatic mTOR activity was measured using a LanthaScreen™ kinase activity assay (Invitrogen). The enzyme was purchased from Invitrogen (PV4754), as well as the GFP-labeled substrate (4EBP1-GFP; PV4759) and the Tb-anti-p4EBP1(pThr46) antibody (PV4757). The assay was performed in 50 mM HEPES buffer, pH 7.5, containing 1.5 mM MnCl2, 10 mM MgCl2, 1 mM EGTA, 2.5 mM DTT and 0.01% Tween-20. The concentration of the assay components were the following: 0.24 nM mTOR kinase, 400 nM 4EBP1-GFP, […] and serial dilutions of the compound (inhibitor) to be evaluated. After 1 h incubation at room temperature, 20 mM EDTA was used to stop the reaction and terbium-labeled antibody (4 nM) added to detect phosphorylated product. The antibody associates with the phosphorylated product resulting in an increased TR-FRET value. The TR-FRET value (a dimensionless number) was calculated as the ratio of the acceptor signal (GFP, emission at 520 nm) to the donor signal (terbium, emission at 495 nm). Values were plotted against the inhibitor concentration and fitted to a sigmoid dose-response curve using GraphPad software.

PIM-1 = target: T3, PIM-1 (Homo sapiens, UniProt P11309); experiment: PIM-1 biochemical assay (ADP Hunter)
T3 construct: histidine tag (C); made in house
T3 sequence (P11309 whole entry): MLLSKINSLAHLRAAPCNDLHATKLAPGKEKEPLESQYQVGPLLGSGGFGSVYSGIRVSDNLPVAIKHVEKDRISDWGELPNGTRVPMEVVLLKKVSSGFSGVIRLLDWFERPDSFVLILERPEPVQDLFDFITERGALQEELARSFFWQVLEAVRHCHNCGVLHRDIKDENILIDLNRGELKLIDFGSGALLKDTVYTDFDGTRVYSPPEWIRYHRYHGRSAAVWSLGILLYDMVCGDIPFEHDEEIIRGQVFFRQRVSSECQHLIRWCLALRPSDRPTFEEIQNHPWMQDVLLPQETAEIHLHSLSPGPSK
From the text: The biochemical assay to measure PIM-1 activity relies on the ADP Hunter assay kit (DiscoveRx Corp., Cat. #90-0077), that determines the amount of ADP as direct product of the kinase enzyme activity.
The enzyme has been expressed and purified in-house as a recombinant human protein with a C-terminal histidine tag. The protein is active and stable.
Assay conditions were as indicated by the kit manufacturers with the following adaptations for the kinase activity step: • Kinase assay buffer and assay volume stay as recommended (15 mM HEPES, pH 7.4, 20 mM NaCl, 1 mM EGTA, 0.02% Tween 20, 10 mM MgCl2 and 0.1 mg/ml bovine γ-globulins/75 μl assay volume) • Incubation time and temperature: 60 min at 30° C. • PIM-1 concentration: 50 pg/μl • ATP concentration: 100 μM • PIM-1 substrate peptide: PIMtide ([…]) (SEQIDNO. 1) • Peptide concentration: 60 μM • Positive control for kinase activity inhibition: 1-10 μM Staurosporine • DMSO concentration have to stay below 2% during the kinase reaction
Assays were performed in either 96 or 384-well plates. The final outcome of the coupled reactions provided by the kit is the release of the fluorescent product Resorufin and has been measured with a multilabel HTS counter VICTOR V (PerkinElmer) using an excitation filter at 544 nm and an emission filter at 580 nm.

[1] = read-out: PI3K alpha activity, IC50 (semi-quantitative class)
[2] = read-out: PI3K alpha actual IC50 (in parentheses)
[3] = read-out: mTOR activity, IC50 (semi-quantitative class)
[4] = read-out: mTOR actual IC50 (in parentheses)
[5] = PIM1, read-out: PIM-1 activity, IC50 (semi-quantitative class)
[6] = read-out: PI3K alpha IC50 (in parentheses)
[7] = read-out: PI3K alpha activity (semi-quantitative IC50)
[8] = read-out: mTOR activity (semi-quantitative IC50)
[9] = read-out: PIM-1 activity (semi-quantitative IC50)
[10] = PIM1, read-out: PIM-1 actual IC50 (in parentheses)
[11] = read-out: PIM-1 IC50 (in parentheses)

T1 sequence (P42336 whole entry): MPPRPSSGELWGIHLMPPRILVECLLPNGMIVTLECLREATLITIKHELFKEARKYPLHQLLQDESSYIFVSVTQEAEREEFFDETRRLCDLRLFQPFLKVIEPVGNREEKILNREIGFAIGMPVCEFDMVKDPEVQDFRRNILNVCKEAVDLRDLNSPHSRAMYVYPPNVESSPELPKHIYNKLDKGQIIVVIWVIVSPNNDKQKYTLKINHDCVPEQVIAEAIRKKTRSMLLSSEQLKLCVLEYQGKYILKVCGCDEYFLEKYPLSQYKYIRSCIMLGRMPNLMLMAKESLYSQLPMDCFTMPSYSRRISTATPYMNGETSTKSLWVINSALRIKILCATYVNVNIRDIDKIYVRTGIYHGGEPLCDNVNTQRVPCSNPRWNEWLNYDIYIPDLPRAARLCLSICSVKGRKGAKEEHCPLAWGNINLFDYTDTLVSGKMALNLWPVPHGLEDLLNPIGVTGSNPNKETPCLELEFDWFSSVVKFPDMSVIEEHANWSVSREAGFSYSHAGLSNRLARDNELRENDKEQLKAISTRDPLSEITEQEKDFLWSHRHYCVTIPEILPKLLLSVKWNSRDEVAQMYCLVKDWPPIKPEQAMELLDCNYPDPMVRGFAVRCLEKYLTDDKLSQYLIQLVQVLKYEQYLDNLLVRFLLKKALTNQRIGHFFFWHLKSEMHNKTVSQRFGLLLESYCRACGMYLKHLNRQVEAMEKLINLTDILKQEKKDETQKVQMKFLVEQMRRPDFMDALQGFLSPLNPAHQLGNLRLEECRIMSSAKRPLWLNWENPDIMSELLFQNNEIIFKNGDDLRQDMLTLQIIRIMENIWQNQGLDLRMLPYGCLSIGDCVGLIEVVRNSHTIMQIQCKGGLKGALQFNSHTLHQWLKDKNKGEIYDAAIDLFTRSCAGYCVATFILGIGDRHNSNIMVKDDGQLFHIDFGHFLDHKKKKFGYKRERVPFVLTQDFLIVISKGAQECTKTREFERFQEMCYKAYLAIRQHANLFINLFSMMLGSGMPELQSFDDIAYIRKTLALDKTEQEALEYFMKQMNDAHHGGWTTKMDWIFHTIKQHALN
T1 sequence (P27986 whole entry partner): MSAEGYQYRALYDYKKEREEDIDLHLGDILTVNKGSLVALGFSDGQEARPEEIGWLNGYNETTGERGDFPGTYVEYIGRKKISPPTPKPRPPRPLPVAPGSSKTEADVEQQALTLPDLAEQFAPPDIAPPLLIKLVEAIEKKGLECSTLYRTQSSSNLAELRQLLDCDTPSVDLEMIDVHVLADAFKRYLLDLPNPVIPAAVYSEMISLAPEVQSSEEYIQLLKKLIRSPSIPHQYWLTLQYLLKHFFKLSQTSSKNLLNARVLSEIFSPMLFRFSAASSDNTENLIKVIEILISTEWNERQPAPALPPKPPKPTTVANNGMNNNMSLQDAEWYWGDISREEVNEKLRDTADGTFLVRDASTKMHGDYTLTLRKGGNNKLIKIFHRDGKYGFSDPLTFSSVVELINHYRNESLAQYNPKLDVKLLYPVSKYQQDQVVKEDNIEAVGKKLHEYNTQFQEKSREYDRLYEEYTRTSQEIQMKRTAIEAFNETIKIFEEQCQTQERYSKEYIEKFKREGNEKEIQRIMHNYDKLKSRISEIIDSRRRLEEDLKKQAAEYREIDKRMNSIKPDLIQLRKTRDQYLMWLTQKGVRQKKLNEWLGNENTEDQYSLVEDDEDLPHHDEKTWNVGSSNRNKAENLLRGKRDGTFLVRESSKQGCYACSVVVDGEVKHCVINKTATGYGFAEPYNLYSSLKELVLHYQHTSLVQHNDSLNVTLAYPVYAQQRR

Row | SMILES | IC50 (PI3K (p110α/p85α); [1]) | IC50 (PI3K (p110α/p85α); [2]) | IC50 (mTOR; [3]) | IC50 (PIM-1; [5]) | also measured
1 | COc1ncc2cc1NS(=O)(=O)c1cccc(c1)C(=O)Nc1cncc(c1)-c1ncnc3c1SC2=C3 [compound 47] | < 100 nM | 99 nM | < 100 nM | > 1000 nM | IC50 (mTOR; [4]): 8.5 nM
2 | COc1ncc2cc1NS(=O)(=O)c1cccc(c1)C(=O)NCC1=CC=C(S1)c1ccnc3[nH]c-2cc13 [compound 78] | 100 to 1000 nM |  | > 1000 nM | 100 to 1000 nM | 
3 | COc1ncc2cc1NS(=O)(=O)c1cccc(c1)C(=O)NCc1cccc(c1F)-c1ccnc3ccc-2cc13 [compound 5] | < 100 nM | 23 nM | 100 to 1000 nM | > 1000 nM | 
4 | COc1ncc2cc1NS(=O)(=O)c1cccc(c1)C(=O)NCCN1CC=C(CC1)c1cnc3ccc-2nn13 [compound 23] | < 100 nM | 5 nM | < 100 nM | > 1000 nM | IC50 (mTOR; [4]): 22 nM
5 | COc1ncc2cc1NS(=O)(=O)c1cccc(c1)C(=O)NCc1cncc(c1)-c1ccnc3ccc-2cc13 [compound 1] | < 100 nM | 2 nM | < 100 nM | > 1000 nM | IC50 (mTOR; [4]): 64 nM
6 | COc1ncc2cc1NS(=O)(=O)c1cccc(c1)C(=O)NCc1cccc(c1)-c1ccnc3ccc-2nc13 [compound 35] | < 100 nM | 5 nM | < 100 nM | > 1000 nM | IC50 (mTOR; [4]): 16 nM
7 | COc1ncc2cc1NS(=O)(=O)c1cccc(c1)C(=O)NCCn1cc(cn1)-c1cnc3ccc-2nn13 [compound 18] | < 100 nM | 5 nM | < 100 nM | > 1000 nM | IC50 (mTOR; [4]): 67 nM
8 | O=C1NCc2cncc(c2)-c2ncnc3c2SC(=C3)c2cnc(Cl)c(c2)NS(=O)(=O)c2cccc1c2 [compound 58] | < 100 nM | 3.6 nM | > 1000 nM | 100 to 1000 nM | 
9 | COc1ncc2cc1NS(=O)(=O)c1cccc(c1)C(=O)NCc1cc(ccn1)-c1cnc3sc-2nn13 [compound 96] |  |  |  |  | IC50 (PI3K (p110α/p85α); [6]): 8.8 nM; IC50 (PI3K (p110α/p85α); [7]): < 100 nM; IC50 (mTOR; [8]): 100 to 1000 nM
10 | COc1ncc2cc1NS(=O)(=O)c1cccc(c1)C(=O)NC[C@@H]1CCN(C1)c1ncnc3c1SC2=C3 [compound 86] |  |  |  |  | IC50 (PI3K (p110α/p85α); [7]): > 1000 nM; IC50 (mTOR; [8]): > 1000 nM; IC50 (PIM-1; [9]): 100 to 1000 nM
11 | O=C1NCc2cncc(c2)-c2ncnc3c2SC(=C3)c2cnc(O)c(c2)NS(=O)(=O)c2cccc1c2 [compound 45] | > 1000 nM |  | > 1000 nM | 100 to 1000 nM | 
12 | COc1ncc2cc1NS(=O)(=O)c1cccc(c1)C(=O)NCC1=CC=C(S1)c1c(C#N)cnc3c1SC2=C3 [compound 73] | > 1000 nM |  | > 1000 nM | < 100 nM | IC50 (PIM-1; [10]): 45 nM
13 | COc1ncc2cc1NS(=O)(=O)c1cccc(c1)C(=O)NCc1cncc(c1)-c1cnn3ccc-2nc13 [compound 11] | < 100 nM | 0.4 nM | < 100 nM | > 1000 nM | IC50 (mTOR; [4]): 4 nM
14 | CC(C)Oc1ncc2cc1NS(=O)(=O)c1cccc(c1)C(=O)NCc1cncc(c1)-c1ncnc3c1SC2=C3 [compound 50] | > 1000 nM |  | > 1000 nM | > 1000 nM | 
15 | COc1ncc2cc1NS(=O)(=O)c1cccc(c1)C(=O)NC[C@@H]1CCN(C1)c1ncnc3c1SC2=C3C [compound 94] |  |  |  |  | IC50 (PI3K (p110α/p85α); [6]): 26 nM; IC50 (PI3K (p110α/p85α); [7]): < 100 nM; IC50 (mTOR; [8]): > 1000 nM; IC50 (PIM-1; [11]): 65 nM; IC50 (PIM-1; [9]): < 100 nM
16 | COc1ncc2cc1NS(=O)(=O)c1cc(c(F)cc1F)C(=O)NCc1cncc(c1)-c1ccnc3ccc-2nc13 [compound 71] | < 100 nM | 0.15 nM | < 100 nM | > 1000 nM | IC50 (mTOR; [4]): 25 nM
17 | COc1ncc2cc1NS(=O)(=O)c1cccc(c1)C(=O)NCc1cc(F)cc(c1)-c1ncnc3c1SC2=C3 [compound 72] | > 1000 nM |  | > 1000 nM | 100 to 1000 nM | 

Row | SMILES | IC50 (PI3K (p110α/p85α); [1]) | IC50 (PI3K (p110α/p85α); [2]) | IC50 (mTOR; [3]) | IC50 (PIM-1; [5]) | also measured
18 | CC(C)Oc1ncc2cc1NS(=O)(=O)c1cccc(c1)C(=O)NCCn1cc(cn1)-c1ncnc3c1SC2=C3 [compound 59] | > 1000 nM |  | > 1000 nM | > 1000 nM | 
19 | COc1ncc2cc1N(C)S(=O)(=O)c1cccc(c1)C(=O)NCc1cncc(c1)-c1ncnc3c1SC2=C3 [compound 46] | > 1000 nM |  | > 1000 nM | > 1000 nM | 
20 | COc1ncc2cc1NS(=O)(=O)c1cccc(c1)C(=O)NCc1cncc(c1)-c1cnc3ccc-2nn13 [compound 12] | < 100 nM | 0.4 nM | < 100 nM | > 1000 nM | IC50 (mTOR; [4]): 5 nM
21 | COc1ncc2cc1NS(=O)(=O)c1cccc(c1)C(=O)NCc1ccc(F)c(c1)-c1ccnc3ccc-2cc13 [compound 4] | < 100 nM | 3 nM | 100 to 1000 nM | > 1000 nM | 
22 | COc1ncc2cc1NS(=O)(=O)c1cccc(c1)C(=O)NCc1cncc(c1)-c1ncnc3ccc-2cc13 [compound 41] | < 100 nM | 3 nM | < 100 nM | > 1000 nM | IC50 (mTOR; [4]): 16 nM
23 | COc1ncc2cc1NS(=O)(=O)c1cccc(c1)C(=O)NCC1=CC=C(S1)c1ccnc3c1SC2=C3 [compound 80] | 100 to 1000 nM |  | > 1000 nM | < 100 nM | IC50 (PIM-1; [10]): 15 nM
24 | COc1ncc2cc1NS(=O)(=O)c1cccc(c1)C(=O)NCc1cc(ccc1F)-c1ncnc3c1SC2=C3 [compound 65] | 100 to 1000 nM |  | > 1000 nM | > 1000 nM | 
25 | COc1ncc2cc1NS(=O)(=O)c1cccc(c1)C(=O)NCc1cccc(c1)-c1cnc3sc-2nn13 [compound 17] | < 100 nM | 9 nM | 100 to 1000 nM | > 1000 nM | 
26 | COc1ccc2cc1C(=O)NCC1=CC=C(S1)c1ncnc3c1SC(=C3)c1cnc(OC)c(c1)NS2(=O)=O [compound 97] |  |  |  |  | IC50 (PI3K (p110α/p85α); [7]): 100 to 1000 nM; IC50 (mTOR; [8]): > 1000 nM; IC50 (PIM-1; [11]): 62 nM; IC50 (PIM-1; [9]): < 100 nM
27 | COc1ncc2cc1NS(=O)(=O)c1cccc(c1)C(=O)NC[C@H]1CCN(C1)c1ncnc3c1SC2=C3 [compound 87] |  |  |  |  | IC50 (PI3K (p110α/p85α); [7]): > 1000 nM; IC50 (mTOR; [8]): > 1000 nM; IC50 (PIM-1; [9]): 100 to 1000 nM
28 | COc1ncc2cc1NS(=O)(=O)c1cccc(c1)C(=O)NCc1cccc(c1)-c1ncnc3sc-2cc13 [compound 37] | < 100 nM | 20 nM | > 1000 nM | > 1000 nM | 
29 | COc1ncc2cc1NS(=O)(=O)c1cccc(c1)C(=O)NC[C@@H]1CCCN(C1)c1ncnc3c1SC2=C3 [compound 84] | > 1000 nM |  | > 1000 nM | 100 to 1000 nM | 
30 | COc1ncc2cc1NS(=O)(=O)c1cccc(c1)C(=O)NCc1nc(cs1)-c1ncnc3c1SC2=C3 [compound 79] | 100 to 1000 nM |  | > 1000 nM | > 1000 nM | 
31 | COc1ncc2cc1NS(=O)(=O)c1cc(ccc1F)C(=O)NCc1cncc(c1)-c1ncnc3c1SC2=C3 [compound 52] | 100 to 1000 nM |  | > 1000 nM | 100 to 1000 nM | 
32 | COc1ncc2cc1NS(=O)(=O)c1cccc(c1)C(=O)N[C@@H]1CCCN(C1)c1ncnc3c1SC2=C3 [compound 76] | > 1000 nM |  |  | 100 to 1000 nM | 
33 | COc1ncc2cc1NS(=O)(=O)c1cccc(c1)C(=O)NCc1cc(cs1)-c1ncnc3c1SC2=C3 [compound 74] | > 1000 nM |  |  | 100 to 1000 nM | 
34 | COc1ncc2cc1NS(=O)(=O)c1cccc(c1)C(=O)N[C@H]1CCCN(C1)c1ncnc3c1SC2=C3 [compound 75] | > 1000 nM |  |  | > 1000 nM | 
